Assays:
[1] = tested on: cytochrome p450 (CYP) IAI gene; assay: MC RT-PCR with Celi competitive templates, induction of CYPIAI gene expression; format: cell-based, human; settings: BEP2D cells incubated with β-napthoflavone (10 μM); control 0.1% DMSO; about the same cDNA loading by GAPDH reference gene
Procedure: In a second set of experiments, multiplex competitive reverse transcriptase polymerase chain reaction (MC RT-PCR) with competitive templates were prepared by the Celi method to evaluate the cytochrome p450 (CYP) IAI gene in β-napthoflavone-exposed BEP2D cells. The induction of CYPIAI gene expression was evaluated using both MC RT-PCR with Celi competitive templates, and Northern analysis. Competitive templates were prepared for both the CYPIAI and GAPDH genes. The primers used to prepare the competitive template for GAPDH were: […]
The PCR amplification conditions were the same as described for experiments using the competitive templates prepared for GAPDH and GSHPx by the Higuchi method except the annealing temperature was 55 degrees centigrade and the amplification was carried out for 38 cycles.
Because the native and competitive templates separate without prior restriction endonuclease digestion, samples were taken directly from the PCR reaction tube and applied to ethidium bromide stained 3% Nusieve, 1% LE agarose gels. It was then possible to quantify the products by taking a negative photograph of the gel using Polaroid 665 positive/negative instant film, subjecting the negative photograph to densitometry. […]

[2] = tested on: cytochrome p450 IA1 (CYPIAI); assay: Northern analysis of CYPIAI gene expression; format: cell-based, human; settings: BEP2D cells incubated with β-napthoflavone (10 μM); control 0.1% DMSO; 32P-labeled CYPIAI cDNA probe
Procedure: RNA from BEP2D cells incubated for varying times with β-napthoflavone (10 μM) was either electrophoresed on a 1% LE formaldehyde denaturing gel for Northern analysis or MC RT-PCR amplified, as described above. For Northern analysis, following transfer of the RNA to GeneScreen, the filters were hybridized with ^32P-labeled CYPLAI cDNA.

`O=c1cc(-c2ccccc2)oc2ccc3ccccc3c12` [β-napthoflavone] was tested, and the “band representing the native CYPIAI gene, exposed cells compared to control cells” value [1] was “much more strongly represented” and the “gene expression of the CYPIAI gene” value [2] was “increase”.

— patent US20060183144A1, “Methods and compositions for assessing nucleic acids” (Medical College of Ohio, priority 2005, published 2006)
